Results as given in US12649730B2 (MITOIMMUNE THERAPEUTICS INC., priority 2021, dated 2026).
Read-outs that look alike come from different tables or passages of the source.

Key:
[1] = Solubility screening of the compound of Chemical Formula 1 in various solvents (supernatant, HPLC); format: physicochemical
[2] = Solubility equilibrium in DMSO/EtOH mixed solvent by temperature; format: physicochemical; details: organic solvent or mixture, thermodynamic from solid
Procedure: These were respectively heated and held at 50° C., 60° C., and 75° C. while being agitated for 6 hours. […] Accordingly, it was decided that a super-saturation method would be considered.

H9C2 cells [3] = experiment: Cytoplasmic calcium concentration under tBHP treatment (FLIPR Calcium 6 assay kit); format: cell-based; details: 150 μM tBHP
Procedure: To examine the calcium concentration maintenance effect in cardiomyocytes, H9C2 cells were placed in a 96 well plate at 1.5×10^4 cells/well and cultured for 24 hours. To measure cytoplasmic calcium concentration, a FLIPR Calcium 6 assay kit (Molecular devices; #R8190) was used. Following the manufacturer's experimental method, the cells were treated with probenecid and calcium-specific dye. […] For stimulation of cells, the cells were treated with tBHP to a final concentration of 150 μM, then cytoplasmic calcium concentration was measured every 30 seconds in real time. […] The ΔF/F (Max-Min) value of the vertical axis is the difference between the maximum and minimum values for the fluorescence value of calcium-specific dye after tBHP treatment. The ΔF/F value increases with cytoplasmic calcium concentration. The horizontal axis indicates the concentration of Chemical Formula 1, and V.C. is a control only treated with the vehicle, where cytoplasmic calcium concentration increases most when treated with tBHP.

H9C2 cells [4] = experiment: Mitochondrial calcium imaging with Rhod-2 under tBHP, thapsigargin and CaCl2; format: cell-based; details: 10 μM compound, 150 μM tBHP, 1.2 μM thapsigargin, 2 mM CaCl2
Procedure: In addition, in order to confirm the effect of inhibiting the increase in mitochondrial calcium concentration in cardiomyocytes by cell imaging, H9C2 cells were seeded in a 35 mm culture dish at 1.5×10^4 cells and cultured for 24 hours. Imaging of calcium concentration in mitochondria was performed using Rhod-2. The cells were treated with Rhod-2, MitoTracker Green (200 nM), and Hoechst33342 (2 drops/ml) for 50 minutes, washed twice with KRB buffer, and incubated for another 30 minutes with buffer solution. The cells were treated with the compound of Formula 1 for 0.25 hours to final concentration of 10 μM, and treated with tBHP for 30 minutes to final concentration of 150 μM. Then, the cells were treated with 1.2 μM thapsigargin for 10 minutes and 2 mM of CaCl2, and the fluorescence developed in mitochondrial calcium of the living cells was observed through imaging.

H9C2 cells [5] = experiment: Intra-mitochondrial reactive oxygen species, DHR-123 fluorometry under tBHP; format: cell-based; details: 0.0001 to 30 μM compound, 400 μM tBHP
Procedure: To examine the intra-mitochondrial reactive oxygen species removal effect in cardiomyocytes, H9C2 cells were placed in a 96 well plate at 1.5×10^4 cells/well and cultured for 24 hours. To measure mitochondria-specific reactive oxygen species, fluorometry using dihydrorhodamine-123 (DHR-123) was used.

H9C2 cells [6] = experiment: Intra-mitochondrial superoxide imaging with MitoSOX under tBHP; format: cell-based; details: 1 μM compound, 50 μM tBHP 1 hour
Procedure: To measure the superoxides among the reactive oxygen species occurring in mitochondria, intracellular fluorescent imaging was used by using MitoSOX™ (Red Mitochondrial Superoxide Indicator). […] The cell culture medium was replaced with a medium without phenol red, then the cells were treated for 30 minutes with HOECHST (0.5 drop/ml), MitoTracker Green (150 nM) and MitoSOX (2 μM) before observing intracellular fluorescence through imaging.

RAW264.7 cells = experiment: Peroxynitrite removal in macrophages under SIN-1 (DAX-J2 PON Green); format: cell-based; details: RAW264.7 macrophages, 10 μM and 30 μM, 200 μM SIN-1
Procedure: (§1) To confirm the effect of removing peroxynitrite produced from macrophages, RAW264.7 cells were seeded in a 96 well plate at 1×10^5 cells/well and cultured for 24 hours. Peroxynitrite was measured by fluorescence measurement using DAX-J2™ PON Green dye. […] Thereafter, SIN-1 was treated to a final concentration of 200 μM, and the amount of peroxynitrite generated in the cell every 2 minutes in real time was measured through fluorescence intensity. To confirm the effect of removing peroxynitrite from astrocytes, C8-D1A cells were seeded in a 96 well plate at 6×10^4 cells/well and cultured for 24 hours, and the experiment was performed under the same conditions. […] The horizontal axis represents the concentrations of the compound of Formula 1 and ascorbic acid, and V.C is the control treated with only the vehicle, and the concentration of intracellular peroxynitrite increases the most during SIN-1 treatment. The vertical axis represents the total amount of peroxynitrite generated 1 hour after SIN-1 treatment.

C8-D1A cells = experiment: Peroxynitrite removal in astrocytes under SIN-1 (DAX-J2 PON Green); format: cell-based; details: 10 μM and 30 μM, 200 μM SIN-1
Procedure: as §1

[7] = tested on: MPTP-induced Parkinson's disease mouse model; experiment: Pole test in MPTP-induced Parkinson's disease mouse model; format: in vivo, C57BL/6 mice; details: intraperitoneally once a day, low, medium and high doses, 6 days from 2 days after MPTP
[8] = tested on: MPTP-induced Parkinson's disease mouse model; experiment: Grip strength test in MPTP-induced Parkinson's disease mouse model; format: in vivo, C57BL/6 mice; details: intraperitoneally once a day, low, medium and high doses, 6 days from 2 days after MPTP
[9] = tested on: MPTP-induced Parkinson's disease mouse model; experiment: TH (Tyrosine hydroxylase) staining of brain tissue in MPTP-induced Parkinson's disease mouse model; format: in vivo, C57BL/6 mice; details: medium and high doses
Procedure: Behavioral disorders were induced by administering 20 mg/kg MPTP to C57BL/6 mice a total of 4 times at 2 hour intervals. […] On the 6th day after administration of the compound of Formula 1, mice were sacrificed, frozen sections of brain tissue were prepared, and TH (Tyrosine hydroxylase) staining was performed.

[10] = intraperitoneally once a day, low, 6 days

In the case of `O=S1(=O)CCN(Cc2cc(NC3CCOCC3)c3[nH]c(-c4ccccc4)cc3c2)CC1` [compound of Chemical Formula 1, 5-[(1,1-dioxido-4-thiomorpholinyl)methyl]-2-phenyl-N-(tetrahydro-2H-pyran-4-yl)-1H-indol-7-amine], the Solubility ([1]; Heptane, 25° C.) is reported as “<LOQ”, the Solubility ([1]; Heptane, 50° C.) is reported as “<LOQ” and the Solubility ([1]; MTBE, 25° C.) is reported as 0.06 mg/mL. The Solubility ([1]; MTBE, 50° C.) was 0.07 mg/mL, the Solubility ([1]; THF, 25° C.) was 17.40 mg/mL and the Solubility ([1]; in most solvents (Table 3)) was “very low”. For the same molecule, the Solubility ([1]; organic solvent or mixture, thermodynamic from solid, in DMF, NMP and DMSO (Table 3), read-out: Solubility) was ≥ 40 mg/mL, the solubility at 6 h ([2]; DMSO/EtOH 1:4 mixed solvent, DMSO/EtOH 1:4, 50° C.) was 15 mg/mL and the solubility at 6 h ([2]; DMSO/EtOH 1:4 mixed solvent, DMSO/EtOH 1:4, 60° C.) was 19 mg/mL. The solubility at 6 h ([2]; DMSO/EtOH 1:4 mixed solvent, DMSO/EtOH 1:4, 75° C.) was 31 mg/mL, the solubility at 6 h ([2]; DMSO/EtOH 1:5 mixed solvent, DMSO/EtOH 1:5, 50° C.) was 12 mg/mL and the solubility at 6 h ([2]; DMSO/EtOH 1:5 mixed solvent, DMSO/EtOH 1:5, 60° C.) was 14 mg/mL. For the same molecule, the solubility at 6 h ([2]; DMSO/EtOH 1:5 mixed solvent, DMSO/EtOH 1:5, 75° C.) was 19 mg/mL, the “Cytoplasmic calcium concentration (ΔF/F Max-Min) after tBHP” value (H9C2 cells [3]; 0.01 μM compound) was “reduced” and the “Cytoplasmic calcium concentration (ΔF/F Max-Min) after tBHP” value (H9C2 cells [3]; 0.1 μM compound) was “normal level of cytoplasmic calcium concentration”. For the same molecule, the “Mitochondrial calcium concentration (Rhod-2 fluorescence)” value (H9C2 cells [4]) was “effectively inhibited the increase in the calcium concentration in mitochondria”, the “Total intra-mitochondrial reactive oxygen species over 2 hours after tBHP (DHR-123)” value (H9C2 cells [5]) was “inhibit occurrence of reactive oxygen species in a concentration-dependent manner” and the “Intra-mitochondrial superoxide (MitoSOX fluorescence)” value (H9C2 cells [6]) was “effectively removes intra-mitochondrial reactive oxygen species including superoxides”. The “Peroxynitrite inhibition compared with positive control ascorbic acid” value (RAW264.7 cells) was “superior inhibitory effect than ascorbic acid”, the “Total peroxynitrite generated 1 hour after SIN-1 treatment” value (RAW264.7 cells) was “peroxynitrite generation was inhibited by treatment with the compound of Formula 1 in a concentration-dependent manner” and the “Peroxynitrite inhibition compared with positive control ascorbic acid” value (C8-D1A cells) was “superior inhibitory effect than ascorbic acid”. For the same molecule, the “Total peroxynitrite generated 1 hour after SIN-1 treatment” value (C8-D1A cells) was “peroxynitrite generation was inhibited by treatment with the compound of Formula 1 in a concentration-dependent manner”, the “Pole test T-turn time” value [7] was “recovered in a concentration-dependent manner” and the “Pole test total time” value [7] was “recovered in a concentration-dependent manner”. For the same molecule, the Grip force value [8] was “restored in a concentration-dependent manner”, the “TH level in the striatum” value [9, 10] was “recovered in a concentration-dependent manner” and the “TH level in the substantia nigra” value [9, 10] was “recovered in a concentration-dependent manner”. The “TH level in the striatum” value [9] was “significantly increased”.
